Results: ChEMBL document CHEMBL4609991, “Discovery of N-ethylpyridine-2-carboxamide derivatives as a novel scaffold for orally active γ-secretase modulators” (Bioorg Med Chem, 2020)
The source made the active and inactive calls. No cut-off for these calls is given here.

What was measured:
Gamma-secretase = assay: Modulatory activity of gamma secretase in human SKNBE2 cells assessed as decrease in Abeta42 levels incubated for 6 hrs by sandwich ELISA; format: cell-based
in vitro = conditions: CD1, mouse, liver microsomes
[1] = Drug concentration in ddY mouse plasma at 30 mg/kg, po measured after 3 hrs by LC-MS/MS analysis; format: ADME, organism-based
[2] = Drug concentration in ddY mouse brain at 30 mg/kg, po measured after 3 hrs by LC-MS/MS analysis; format: ADME, organism-based; conditions: read-out: Ct
[3] = […], ratio of drug concentration in brain to plasma at steady state in ddY mouse at 30 mg/kg, po by LC-MS/MS analysis; format: ADME, organism-based
[4] = Ratio of drug concentration in ddY mouse brain to IC50 for gamma secretase in human SKNBE2 cells assessed as decrease in Abeta42 levels incubated for 6 hrs by sandwich ELISA; format: ADME, cell-based
Mus musculus [5] = assay: In vivo modulatory activity of gamma secretase in ddY mouse assessed as reduction in Abeta42 levels in brain at 30 mg/kg, po measured after 3 hrs by ELISA relative to control; format: functional
Mus musculus [6] = assay: In vivo modulatory activity of gamma secretase in ddY mouse assessed as reduction in Abeta42 levels in plasma at 30 mg/kg, po measured after 3 hrs by ELISA relative to control; format: functional
[7] = molecular target: Gamma-secretase (Homo sapiens) (UniProt Q96BI3+Q9NZ42+Q8WW43+P49768+Q92542+P49810); assay: Inhibition of gamma-secretase in human H4 cells overexpressing human wild-type APP assessed as beta-CTF level incubated for 24 hrs by ELISA; format: cell-based
CYP3A4 [8] = molecular target: T1, CYP3A4 (Homo sapiens, UniProt P08684); assay: Inhibition of CYP3A4 in human liver microsomes assessed as residual activity at 5 uM using midazolam as substrate measured after 20 mins by LC-MS/MS analysis relative to control; format: ADME; conditions: probe midazolam, read-out: Activity
CYP3A4 [9] = molecular target: T1, CYP3A4; assay: Inhibition of CYP3A4 in human liver microsomes assessed as residual activity at 5 uM using midazolam as substrate preincubated with enzyme for 30 mins followed by incubation with substrate for 20 mins by LC-MS/MS analysis relative to control; format: ADME; conditions: probe midazolam, read-out: Activity

T1 sequence (P08684 whole entry): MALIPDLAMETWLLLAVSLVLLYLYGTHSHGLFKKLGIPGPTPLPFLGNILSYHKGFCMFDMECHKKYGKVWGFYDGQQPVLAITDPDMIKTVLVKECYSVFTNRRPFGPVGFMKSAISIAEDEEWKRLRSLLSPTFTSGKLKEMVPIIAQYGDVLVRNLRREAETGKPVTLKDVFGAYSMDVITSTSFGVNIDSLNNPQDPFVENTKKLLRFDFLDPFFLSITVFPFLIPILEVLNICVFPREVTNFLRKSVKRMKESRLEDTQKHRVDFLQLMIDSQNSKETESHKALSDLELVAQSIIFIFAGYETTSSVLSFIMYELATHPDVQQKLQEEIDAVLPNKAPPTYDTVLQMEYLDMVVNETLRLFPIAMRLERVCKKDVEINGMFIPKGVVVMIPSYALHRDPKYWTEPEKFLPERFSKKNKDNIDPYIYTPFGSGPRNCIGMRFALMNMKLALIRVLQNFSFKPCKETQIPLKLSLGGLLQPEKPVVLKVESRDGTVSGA

IC50 (Gamma-secretase) [nM]	microsomal CLint at 0.75 h, 0.2 µM (in vitro) [µL/min/mg]	Compound	other results
1100	> 1000	CCNC(=O)c1ccc(-c2c(C)nc3c(OCCc4ccccc4)cccn23)cn1	–
> 2000	> 1000	CCN1C(=O)c2ccc(-c3c(C)nc4c(OCc5ccccc5)cccn34)cc2C1(C)C	–
–	652	CCNC(=O)c1ccc(-c2c(C)nc3c(OCc4ccc(C)cc4C)cccn23)cn1	–
170	> 1000	CCNC(=O)c1ccc(-c2c(C)nc3c(OCc4c(C)cc(C)cc4C)cccn23)cn1	–
> 50000	–	CCN1CCc2cc(-c3c(C)nc4c(OCc5ccccc5)cccn34)ccc2C1=O	–
580	324	CCNC(=O)c1ccc(-c2c(C)nc3c(OCc4ccccc4)cccn23)cn1	–
62	367	CCNC(=O)c1ccc(-c2c(C)nc3c(OCc4cccc(-c5ccccc5)c4)cccn23)cn1.Cl	concentration at 3 h [1]: 6.6 µM; concentration at 3 h [2]: 0.77 µM; Kp [3]: 0.12; Ratio [4]: 12 nmol/g/uM; inhibition in vivo at 30 mg/kg (Mus musculus [5]): 6%
150	228	CCNC(=O)c1ccc(-c2c(C)nc3c(OCc4ccccc4F)cccn23)cn1.Cl	concentration at 3 h [1]: 2.7 µM; concentration at 3 h [2]: 0.75 µM; Kp [3]: 0.27; Ratio [4]: 5 nmol/g/uM; inhibition in vivo at 30 mg/kg (Mus musculus [5]): 6%; inhibition in vivo at 30 mg/kg (Mus musculus [6]): 16%
–	49.9	CCNC(=O)c1ccc(-c2c(C)nc3c(OCc4ccc(-n5cncn5)cc4)cccn23)cn1	–
> 10000	77.9	CCNC(=O)c1ccc(-c2c(C)nc3c(OCc4cccc(C(=O)N(C)C)c4)cccn23)cn1	–
370	438	CCNC(=O)c1ccc(-c2c(C)nc3c(OCc4ccc(C)cc4)cccn23)cn1	–
–	–	CCN1Cc2cc(-c3c(C)nc4c(OCc5ccccc5)cccn34)ccc2C1=O.Cl	Kp [3]: 0.72; Ratio [4]: 1.8 nmol/g/uM; inhibition in vivo at 30 mg/kg (Mus musculus [5]): 2%
390	> 1000	CCNC(=O)c1ccc(-c2c(C)nc3c(OCc4ccccc4-c4ccccc4)cccn23)cn1	–
91	84.7	CCNC(=O)c1ccc(-c2c(C)nc3c(OCc4ccc(-c5ccccc5)cc4)cccn23)cn1.Cl	inhibition [7]: inactive; concentration at 3 h [1]: 10 µM; concentration at 3 h [2]: 4.6 µM; Kp [3]: 0.45; Ratio [4]: 51 nmol/g/uM; inhibition in vivo at 30 mg/kg (Mus musculus [5]): 36%; inhibition in vivo at 30 mg/kg (Mus musculus [6]): 66%; activity at 20 min, 5 µM (CYP3A4 [8]): 101%; activity at 20 min, 5 µM (CYP3A4 [9]): 83%
240	295	CCNC(=O)c1ccc(-c2c(C)nc3c(OCc4cccc(F)c4)cccn23)cn1	–
6200	350	CCNC(=O)c1ccc(-c2c(COC)nc3c(OCc4ccccc4)cccn23)cn1	–
–	75.7	CCNC(=O)c1ccc(-c2c(CO)nc3c(OCc4ccccc4)cccn23)cn1	–
> 50000	500	CCNC(=O)c1ccc(-c2c(C)nc3c(OCc4ccccc4)cccn23)cc1F	–
–	318	CCNC(=O)c1ccc(-c2c(C#N)nc3c(OCc4ccccc4)cccn23)cn1	–
